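Tested at 5 concentrations; 48 h exposure; 96-well plates; endpoints linearly interpolated, else capped at highest concentration. At the GI50, growth is halved.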 Activity calls are given as the source filed them. No stated cut-off is given here; in the data, active = GI50 up to about 1.1 µM and inactive = higher. Peptide text beside a SMILES is read from it. * marks the point of attachment. Cbz = O=C(OCc1ccccc1)*
Assays:
Assay in all cases: DTP human tumour cell line panel, 48 h
A498 = test system: A498
ACHN = test system: ACHN
COLO 205 = test system: COLO 205
HCC 2998 = test system: HCC 2998
HCT-116 = test system: HCT-116
HOP-62 = test system: HOP-62
Hs-578T = test system: Hs-578T
K562 = test system: K562
LOX IMVI = test system: LOX IMVI
M14 = test system: M14
MCF7 = test system: MCF7
NCI-H23 = test system: NCI-H23
NCI-H460 = test system: NCI-H460
NCI/ADR-RES = test system: NCI/ADR-RES
OVCAR-4 = test system: OVCAR-4
PC-3 = test system: PC-3
RXF 393 = test system: RXF 393
SF-268 = test system: SF-268
SF-295 = test system: SF-295
SN12C = test system: SN12C

Compound	GI50 (A498)	GI50 (ACHN)	GI50 (COLO 205)	GI50 (HCC 2998)	GI50 (HCT-116)	GI50 (HOP-62)	GI50 (Hs-578T)	GI50 (K562)	GI50 (LOX IMVI)	GI50 (M14)	GI50 (MCF7)	GI50 (NCI-H23)	GI50 (NCI-H460)	GI50 (NCI/ADR-RES)	GI50 (OVCAR-4)	GI50 (PC-3)	GI50 (RXF 393)	GI50 (SF-268)	GI50 (SF-295)	GI50 (SN12C)
CC(=O)NC1C(OCc2ccccc2)OC(CO)C(O)C1OCC(=O)N1CCCC1C(=O)NC(CCC(=O)NCCCCCNc1c2ccccc2nc2cccc([N+](=O)[O-])c12)C(N)=O (stereo not given)	0.0568 µM (active)	0.00865 µM (active)	0.0144 µM (active)	0.00706 µM (active)	0.00433 µM (active)	0.017 µM (active)	0.0345 µM (active)	0.00366 µM (active)	0.166 µM (active)	0.0228 µM (active)	0.003 µM (active)	0.0336 µM (active)	0.00125 µM (active)	0.0726 µM (active)	0.0982 µM (active)	0.00321 µM (active)	0.00938 µM (active)	0.0201 µM (active)	0.048 µM (active)	0.011 µM (active)
CSc1nc2ccccc2c(=O)n1-c1cccc(C)c1	19.9 µM (inactive)	97.9 µM (inactive)	48.9 µM (inactive)	15.6 µM (inactive)	47.8 µM (inactive)	> 100 µM (inactive)	47.4 µM (inactive)	33 µM (inactive)	53.1 µM (inactive)	95.5 µM (inactive)	32.5 µM (inactive)	> 100 µM (inactive)	36 µM (inactive)	48.4 µM (inactive)	86.7 µM (inactive)	46.6 µM (inactive)	81.8 µM (inactive)	99.1 µM (inactive)	95.5 µM (inactive)	> 100 µM (inactive)
CC1CC(C)CC(NC2=NCCO2)C1 (stereo not given)	> 100 µM (inactive)	> 100 µM (inactive)	> 100 µM (inactive)	> 100 µM (inactive)	> 100 µM (inactive)	> 100 µM (inactive)	> 100 µM (inactive)	> 100 µM (inactive)	> 100 µM (inactive)	> 100 µM (inactive)	> 100 µM (inactive)	> 100 µM (inactive)	> 100 µM (inactive)	> 100 µM (inactive)	> 100 µM (inactive)	> 100 µM (inactive)	> 100 µM (inactive)	> 100 µM (inactive)	> 100 µM (inactive)	> 100 µM (inactive)
C/C(=N\Nc1nc2ccccc2s1)c1cc(C)ncn1	9.93 µM (inactive)	0.199 µM (active)	0.0543 µM (active)	1.72 µM (inactive)	0.1 µM (active)	1.34 µM (inactive)	0.738 µM (active)	0.129 µM (active)	0.499 µM (active)	0.474 µM (active)	0.341 µM (active)	0.741 µM (active)	0.426 µM (active)	0.371 µM (active)	1.7 µM (inactive)	0.612 µM (active)	3.02 µM (inactive)	0.318 µM (active)	2.73 µM (inactive)	0.392 µM (active)
CCOC(=O)C(C)NC(=O)C(C)NC(=O)C(C)NC(=O)C(C)NC(=O)C(C)NC(=O)C(C)NC(=O)C(C)NC(=O)OCc1ccccc1 (stereo not given) (Cbz-AAAAAAA-OEt; configuration not given here)	40.8 µM (inactive)	> 100 µM (inactive)	> 100 µM (inactive)	> 100 µM (inactive)	> 100 µM (inactive)	> 100 µM (inactive)	> 100 µM (inactive)	> 100 µM (inactive)	> 100 µM (inactive)	> 100 µM (inactive)	> 100 µM (inactive)	> 100 µM (inactive)	> 100 µM (inactive)	> 100 µM (inactive)	> 100 µM (inactive)	> 100 µM (inactive)	> 100 µM (inactive)	> 100 µM (inactive)	> 100 µM (inactive)	> 100 µM (inactive)
CCOC(=O)Nc1nc(-c2ccccc2)c(C)s1	> 100 µM (inactive)	> 100 µM (inactive)	96.6 µM (inactive)	> 100 µM (inactive)	88.7 µM (inactive)	> 100 µM (inactive)	> 100 µM (inactive)	18.3 µM (inactive)	> 100 µM (inactive)	> 100 µM (inactive)	56.4 µM (inactive)	81.1 µM (inactive)	64 µM (inactive)	59 µM (inactive)	81.5 µM (inactive)	> 100 µM (inactive)	> 100 µM (inactive)	> 100 µM (inactive)	> 100 µM (inactive)	> 100 µM (inactive)
Brc1ccc(/N=C/C=C(\Nc2ccc(Br)cc2)C23CC4CC(CC(C4)C2)C3)cc1	14.1 µM (inactive)	11.1 µM (inactive)	9.62 µM (inactive)	16 µM (inactive)	9.04 µM (inactive)	19.1 µM (inactive)	27.4 µM (inactive)	4.5 µM (inactive)	1.91 µM (inactive)	9.75 µM (inactive)	11 µM (inactive)	16.9 µM (inactive)	6.12 µM (inactive)	20 µM (inactive)	12.7 µM (inactive)	16.1 µM (inactive)	14.7 µM (inactive)	10.2 µM (inactive)	10 µM (inactive)	20.6 µM (inactive)
C1CN(c2nnc(N3CCC3)nn2)C1	> 100 µM (inactive)	> 69.8 µM (inactive)	60.7 µM (inactive)	> 100 µM (inactive)	84.5 µM (inactive)	> 85.7 µM (inactive)	39 µM (inactive)	23.6 µM (inactive)	17.8 µM (inactive)	36.1 µM (inactive)	> 50.2 µM (inactive)	30.6 µM (inactive)	67.9 µM (inactive)	> 53 µM (inactive)	40.9 µM (inactive)	> 46 µM (inactive)	> 63.5 µM (inactive)	90.6 µM (inactive)	37.3 µM (inactive)	29 µM (inactive)
NC1(C(=O)OCc2ccccc2)CCCC1	41.3 µM (inactive)	15.2 µM (inactive)	28.1 µM (inactive)	28 µM (inactive)	18 µM (inactive)	18.8 µM (inactive)	23.7 µM (inactive)	14.8 µM (inactive)	18.2 µM (inactive)	14.5 µM (inactive)	25.1 µM (inactive)	17.5 µM (inactive)	43.3 µM (inactive)	28.6 µM (inactive)	15.1 µM (inactive)	27.2 µM (inactive)	17.4 µM (inactive)	15.1 µM (inactive)	15.9 µM (inactive)	25.1 µM (inactive)
[O-][n+]1onc2c3nn(-c4ccccc4)nc3ccc21	> 100 µM (inactive)	88.3 µM (inactive)	61.8 µM (inactive)	15.6 µM (inactive)	> 100 µM (inactive)	77.1 µM (inactive)	32.1 µM (inactive)	> 100 µM (inactive)	13.2 µM (inactive)	> 100 µM (inactive)	7.69 µM (inactive)	41.6 µM (inactive)	> 100 µM (inactive)	> 100 µM (inactive)	> 100 µM (inactive)	> 83.2 µM (inactive)	> 65.9 µM (inactive)	> 86.7 µM (inactive)	> 100 µM (inactive)	> 100 µM (inactive)
COc1cc2c(cc1OC)C(=O)/C(=C/c1ccccc1)CC2	26.1 µM (inactive)	53.5 µM (inactive)	22.1 µM (inactive)	22.6 µM (inactive)	23.8 µM (inactive)	> 100 µM (inactive)	> 100 µM (inactive)	34.4 µM (inactive)	32.7 µM (inactive)	> 100 µM (inactive)	27.3 µM (inactive)	> 100 µM (inactive)	26.9 µM (inactive)	17.3 µM (inactive)	62.4 µM (inactive)	42.5 µM (inactive)	> 100 µM (inactive)	46.7 µM (inactive)	20.7 µM (inactive)	43.7 µM (inactive)
Clc1ccc(CSCCc2ccncc2)cc1Cl	13.2 µM (inactive)	21.7 µM (inactive)	14.2 µM (inactive)	18.2 µM (inactive)	15.8 µM (inactive)	22.6 µM (inactive)	23.4 µM (inactive)	19.3 µM (inactive)	> 10 µM (inactive)	17.2 µM (inactive)	19.5 µM (inactive)	22 µM (inactive)	31.8 µM (inactive)	19.7 µM (inactive)	23.1 µM (inactive)	21.2 µM (inactive)	21.9 µM (inactive)	21.9 µM (inactive)	17.5 µM (inactive)	17.4 µM (inactive)
Cc1cc(NCCCCCCCCCC[n+]2c(C)cc(N)c3ccccc32)c2ccccc2n1	2.08 µM (inactive)	2.31 µM (inactive)	0.346 µM (active)	0.675 µM (active)	0.209 µM (active)	4.36 µM (inactive)	0.375 µM (active)	0.0409 µM (active)	0.546 µM (active)	2.04 µM (inactive)	0.313 µM (active)	0.0708 µM (active)	0.0638 µM (active)	12.6 µM (inactive)	1.42 µM (inactive)	0.188 µM (active)	4.1 µM (inactive)	1.43 µM (inactive)	0.861 µM (active)	0.733 µM (active)
CCCCOP(=O)(OCCCC)C(NS(=O)(=O)c1ccccc1)(C(=O)OCC)C(F)(F)F (stereo not given)	34.5 µM (inactive)	27.9 µM (inactive)	19.5 µM (inactive)	> 100 µM (inactive)	27.4 µM (inactive)	22.7 µM (inactive)	54.8 µM (inactive)	20.5 µM (inactive)	31.4 µM (inactive)	25.9 µM (inactive)	16.6 µM (inactive)	33.6 µM (inactive)	37.6 µM (inactive)	26 µM (inactive)	27.7 µM (inactive)	30.1 µM (inactive)	26.7 µM (inactive)	43 µM (inactive)	25.8 µM (inactive)	29.1 µM (inactive)
